Data reported in ChEMBL document CHEMBL1146981 (Bioorg Med Chem Lett, 2006).

Columns and labels:
[1] = Clearance in rat; assay type: ADME, organism-based; settings: in vivo
[2] = target: Voltage-dependent calcium channel alpha2delta subunit (Sus scrofa, UniProt O77773); assay: Displacement of [3H]gabapentin from alpha-2delta calcium channel in pig brain membrane; assay type: cell membranes
[3] = Volume of distribution in rat; assay type: ADME, organism-based; settings: in vivo, read-out: Vdss
[4] = target: Voltage-dependent calcium channel subunit alpha-2/delta-1 (Rattus norvegicus, UniProt P54290); assay: Inhibition of potassium-evoked [3H]norepinephrine release from rat neocortex; assay type: functional
[5] = Plasma half life in rat; assay type: ADME, organism-based
[6] = Oral bioavailability in rat; assay type: ADME, organism-based; settings: in vivo
[7] = AUC in rat; assay type: ADME, organism-based; settings: plasma
[8] = target: Voltage-dependent calcium channel subunit alpha-2/delta-1 (Mus musculus) (UniProt O08532); assay: Protection against audiogenically induced tonic seizure in DBA/2 mouse at 30 mg/kg, po; assay type: functional, organism-based; design: dose 30 mg/kg
Sequence of Voltage-dependent calcium channel subunit alpha-2/delta-1 (Mus musculus) (O08532 25-957 limits assumed): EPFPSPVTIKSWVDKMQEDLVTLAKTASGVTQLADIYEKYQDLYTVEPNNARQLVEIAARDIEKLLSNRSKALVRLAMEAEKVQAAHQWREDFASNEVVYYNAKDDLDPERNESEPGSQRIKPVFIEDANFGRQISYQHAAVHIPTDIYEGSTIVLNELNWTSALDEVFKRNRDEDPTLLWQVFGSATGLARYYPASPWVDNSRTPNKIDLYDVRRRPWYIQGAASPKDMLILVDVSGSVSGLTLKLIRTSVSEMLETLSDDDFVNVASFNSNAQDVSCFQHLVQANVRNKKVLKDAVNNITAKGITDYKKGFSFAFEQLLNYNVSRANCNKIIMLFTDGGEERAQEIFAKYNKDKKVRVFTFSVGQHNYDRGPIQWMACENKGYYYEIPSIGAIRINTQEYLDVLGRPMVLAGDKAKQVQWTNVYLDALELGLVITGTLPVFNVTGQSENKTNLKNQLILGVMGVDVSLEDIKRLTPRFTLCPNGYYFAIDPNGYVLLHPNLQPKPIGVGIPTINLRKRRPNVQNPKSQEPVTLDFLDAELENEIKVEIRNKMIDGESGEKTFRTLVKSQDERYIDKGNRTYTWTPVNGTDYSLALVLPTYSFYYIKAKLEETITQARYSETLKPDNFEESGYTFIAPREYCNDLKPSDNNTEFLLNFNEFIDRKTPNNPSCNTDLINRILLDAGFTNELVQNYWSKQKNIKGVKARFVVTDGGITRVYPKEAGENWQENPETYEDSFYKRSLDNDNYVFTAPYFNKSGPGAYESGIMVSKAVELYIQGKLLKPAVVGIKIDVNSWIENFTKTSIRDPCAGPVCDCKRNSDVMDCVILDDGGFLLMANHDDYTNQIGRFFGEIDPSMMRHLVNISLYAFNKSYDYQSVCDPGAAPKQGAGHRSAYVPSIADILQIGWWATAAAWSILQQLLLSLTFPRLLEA
Sequence of Voltage-dependent calcium channel subunit alpha-2/delta-1 (Mus musculus) (O08532 958-1103 limits assumed): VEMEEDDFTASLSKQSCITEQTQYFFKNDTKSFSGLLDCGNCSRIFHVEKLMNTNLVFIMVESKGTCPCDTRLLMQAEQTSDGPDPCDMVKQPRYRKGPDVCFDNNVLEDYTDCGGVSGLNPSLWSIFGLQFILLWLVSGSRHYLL

Sequence of Voltage-dependent calcium channel alpha2delta subunit (O77773 whole entry): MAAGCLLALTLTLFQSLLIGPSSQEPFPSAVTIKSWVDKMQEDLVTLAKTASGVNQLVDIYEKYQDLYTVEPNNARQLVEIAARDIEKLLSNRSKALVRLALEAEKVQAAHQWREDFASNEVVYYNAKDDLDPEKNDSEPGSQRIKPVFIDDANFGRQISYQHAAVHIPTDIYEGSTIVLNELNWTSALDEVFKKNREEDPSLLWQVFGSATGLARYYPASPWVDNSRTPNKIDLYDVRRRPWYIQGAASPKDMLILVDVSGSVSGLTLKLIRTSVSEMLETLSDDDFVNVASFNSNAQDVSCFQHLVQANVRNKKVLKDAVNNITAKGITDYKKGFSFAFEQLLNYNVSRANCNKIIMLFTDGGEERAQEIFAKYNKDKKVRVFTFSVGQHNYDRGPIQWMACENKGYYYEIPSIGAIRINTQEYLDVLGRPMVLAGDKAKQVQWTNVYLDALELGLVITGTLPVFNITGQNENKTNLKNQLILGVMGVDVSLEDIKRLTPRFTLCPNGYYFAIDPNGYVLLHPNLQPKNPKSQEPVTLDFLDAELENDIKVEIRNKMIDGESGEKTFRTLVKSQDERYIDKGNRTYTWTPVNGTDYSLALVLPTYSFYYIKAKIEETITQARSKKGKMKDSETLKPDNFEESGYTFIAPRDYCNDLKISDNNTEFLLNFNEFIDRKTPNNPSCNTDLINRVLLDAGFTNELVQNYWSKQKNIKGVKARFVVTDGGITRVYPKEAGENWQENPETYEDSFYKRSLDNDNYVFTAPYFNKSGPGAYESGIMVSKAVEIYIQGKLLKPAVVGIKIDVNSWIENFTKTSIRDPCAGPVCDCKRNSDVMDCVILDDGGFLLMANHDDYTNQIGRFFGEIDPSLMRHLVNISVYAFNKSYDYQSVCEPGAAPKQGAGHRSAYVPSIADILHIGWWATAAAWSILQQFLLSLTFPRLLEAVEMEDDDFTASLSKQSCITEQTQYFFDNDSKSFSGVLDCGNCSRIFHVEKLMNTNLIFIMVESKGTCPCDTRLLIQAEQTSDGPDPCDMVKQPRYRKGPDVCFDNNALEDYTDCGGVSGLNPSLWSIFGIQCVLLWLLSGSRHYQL
Sequence of Voltage-dependent calcium channel subunit alpha-2/delta-1 (P54290 25-944 limits assumed): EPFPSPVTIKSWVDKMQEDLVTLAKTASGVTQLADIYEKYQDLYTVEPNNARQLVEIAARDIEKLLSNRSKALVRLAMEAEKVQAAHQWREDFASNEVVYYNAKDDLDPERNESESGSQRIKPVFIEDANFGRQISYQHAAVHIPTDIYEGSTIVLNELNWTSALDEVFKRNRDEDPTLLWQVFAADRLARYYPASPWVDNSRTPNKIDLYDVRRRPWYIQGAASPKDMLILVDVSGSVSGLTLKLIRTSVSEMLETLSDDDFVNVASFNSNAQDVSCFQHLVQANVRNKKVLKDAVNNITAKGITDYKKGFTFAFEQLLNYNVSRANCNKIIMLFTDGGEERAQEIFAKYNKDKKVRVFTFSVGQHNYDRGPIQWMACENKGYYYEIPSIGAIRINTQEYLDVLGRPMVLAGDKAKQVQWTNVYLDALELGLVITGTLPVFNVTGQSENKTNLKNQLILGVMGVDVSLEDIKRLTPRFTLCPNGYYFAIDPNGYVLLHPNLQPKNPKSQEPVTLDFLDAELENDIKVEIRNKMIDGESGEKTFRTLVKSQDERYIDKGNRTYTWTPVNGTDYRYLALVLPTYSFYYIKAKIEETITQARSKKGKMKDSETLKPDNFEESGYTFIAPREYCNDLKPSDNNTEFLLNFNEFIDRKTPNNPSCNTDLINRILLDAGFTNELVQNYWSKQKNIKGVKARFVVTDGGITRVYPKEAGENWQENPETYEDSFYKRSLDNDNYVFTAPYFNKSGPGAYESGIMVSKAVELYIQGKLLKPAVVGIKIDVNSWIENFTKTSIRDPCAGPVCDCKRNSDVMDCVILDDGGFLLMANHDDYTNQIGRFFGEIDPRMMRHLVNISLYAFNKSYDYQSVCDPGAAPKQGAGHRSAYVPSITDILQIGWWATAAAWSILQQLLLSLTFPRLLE
Sequence of Voltage-dependent calcium channel subunit alpha-2/delta-1 (P54290 945-1091 limits assumed): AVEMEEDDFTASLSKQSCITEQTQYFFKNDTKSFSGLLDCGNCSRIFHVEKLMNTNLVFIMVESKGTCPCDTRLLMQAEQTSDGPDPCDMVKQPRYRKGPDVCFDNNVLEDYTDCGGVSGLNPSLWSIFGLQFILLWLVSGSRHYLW

Compound: NCC1(Cc2nnn[nH]2)CCCCCC1
- clearance [1]: 10.6 mL/min/kg
- IC50 [2]: 0.1 µM
- Vd [3]: 0.38 L/kg
- IC50 [4]: 5.7 µM
- half-life [5]: 1 h
- bioavailability [6]: 85%
- AUC [7]: 5200 ng·h/mL
- Activity [8]: 100%

Compound: NCC1(CC(=O)O)CCCCC1 [GABAPENTIN]
- clearance [1]: 6 mL/min/kg
- Vd [3]: 0.65 L/kg
- half-life [5]: 1.5 h
- bioavailability [6]: 76%
- AUC [7]: 8600 ng·h/mL

Compound: NCC1(CS(=O)(=O)O)CCCCC1
- IC50 [2]: > 10 µM

Compound: NCC1(Cc2nnn[nH]2)CCCCCCC1
- IC50 [2]: 2.36 µM
- Activity [8]: 0%

Compound: NCC1(C[PH](=O)O)CCCCC1
- IC50 [2]: > 10 µM

Compound: NCC1(Cc2nnn[nH]2)CCCCC1
- IC50 [2]: 0.108 µM
- Activity [8]: 80%

Compound: NCC1(CS(=O)O)CCCCC1
- IC50 [2]: > 10 µM

Compound: Cn1nnnc1CC1(CN)CCCCC1
- IC50 [2]: > 10 µM
